Assays:
Type in all cases: in vivo
[1] = test system: MATCH (Matricaria chamomilla); assay: PE action under various irrigation conditions, test method 6; conditions: PE application; irrigation from below; g of AS/ha: (A) 90, (B) 1200, (C) 140, (A)+(B)+(C) 90 + 1200 + 140
Method: (§1) In the standard design of the test, seeds of various broad-leaved weed and weed grass biotypes (origins) were sown in a 8-13 cm diameter pot filled with natural soil of a standard field soil (loamy silt; non-sterile) and covered with a covering soil layer of about 1 cm. The pots were then cultivated in a greenhouse (12-16 h of light, temperature day 20-22° C., night 15-18° C.) until the time of application. The pots were treated on a laboratory track sprayer with spray liquors comprising the compositions according to the invention, mixtures of the prior art or components used individually. Application of the active compounds or active compound combinations formulated as WG, WP, EC or otherwise was carried out at the appropriate growth stages of the plants. The application rate for the spray application was 100-600 l of water/ha. After the treatment, the plants were returned to the greenhouses.
(§2) About 3 weeks after the application, the soil action or/and foliar action was assessed visually according to a scale of 0-100% in comparison to an untreated comparative group: 0%=no noticeable effect compared to the untreated comparative group; 100%=full effect compared to the untreated comparative group.
(§3) (notes: the term “seeds” also includes vegetative propagation forms such as, for example, rhizome pieces; abbreviations used: h light=hours of illumination, g of AS/ha=gram of active substance per hectare, l/ha=liter per hectare, S=sensitive, R=resistant) • 1. Pre-emergence action against weeds: seeds of various broad-leaved weed and weed grass biotypes (origins) were sown in a 8-13 cm diameter pot filled with natural soil of a standard field soil (loamy silt; non-sterile) and covered with a covering soil layer of about 1 cm. The pots were then cultivated in a greenhouse (12-16 h of light, temperature day 20-22° C., night 15-18° C.) until the time of application. The pots were treated at the BBCH stage 00-10 of the seeds/plants on a laboratory track sprayer with spray liquors comprising the compositions according to the invention, mixtures or components used individually, as WG, WP, EC or other formulations. The application rate for the spray application was 100-600 l of water/ha. After the treatment, the plants were returned to the greenhouses and, when required, treated with fertilizer and watered. • 2. Post-emergence action against weeds: seeds of various broad-leaved weed and weed grass biotypes (origins) were sown in a 8-13 cm diameter pot filled with natural soil of a standard field soil (loamy silt; non-sterile) and covered with a covering soil layer of about 1 cm. The pots were then cultivated in a greenhouse (12-16 h of light, temperature day 20-22° C., night 15-18° C.) until the time of application. The pots were treated at various BBCH stages between 11-25 of the seeds/plants, i.e. generally between two to three weeks after the start of the cultivation, on a laboratory track sprayer with spray liquors comprising the compositions according to the invention, mixtures or components used individually, as WG, WP, EC or other formulations. The application rate for the spray application was 100-600 l of water/ha. After the treatment, the plants were returned to the greenhouses and, when required, treated with fertilizer and watered. • 3. Selective pre-emergence action: seeds of various crop species (origins) were sown in a 8-13 cm diameter pot filled with natural soil of a standard field soil (loamy silt; non-sterile) and covered with a covering soil layer of about 1 cm. The pots were then cultivated in a greenhouse (12-16 h of light, temperature day 20-22° C., night 15-18° C.) until the time of application. The pots were treated at the BBCH stage 00-10 of the seeds/plants on a laboratory track sprayer with spray liquors comprising the compositions according to the invention, mixtures or components used individually, as WG, WP, EC or other formulations. The application rate for the spray application was 100-600 l of water/ha. […]

[2] = test system: HORVS (Hordeum vulgare, summer barley); assay: Selective post-emergence action (crop compatibility), greenhouse trial, test method 4; conditions: PO application; g of AS/ha: (A) 240, (B) 1200, (C) 140, (A)+(B)+(C) 240 + 1200 + 140
Method: as §1, §2
(notes: the term “seeds” also includes vegetative propagation forms such as, for example, rhizome pieces; abbreviations used: h light=hours of illumination, g of AS/ha=gram of active substance per hectare, l/ha=liter per hectare, S=sensitive, R=resistant) • 1. Pre-emergence action against weeds: seeds of various broad-leaved weed and weed grass biotypes (origins) were sown in a 8-13 cm diameter pot filled with natural soil of a standard field soil (loamy silt; non-sterile) and covered with a covering soil layer of about 1 cm. The pots were then cultivated in a greenhouse (12-16 h of light, temperature day 20-22° C., night 15-18° C.) until the time of application. […]

[3] = test system: HORVS (Hordeum vulgare, summer barley); assay: Pre-sowing application (7 days prior to sowing), crop compatibility; conditions: g of AS/ha: (A) 90, (B) 1200, (C) 140, (A)+(B)+(C) 90 + 1200 + 140
Method: as §1
as §2, with “group. […]” for “group.”

[4] = test system: HORVS (Hordeum vulgare, summer barley); assay: Action under various soil conditions (soil types), test method 7, crop compatibility; conditions: g of AS/ha: (A) 90, (B) 1200, (C) 140, (A)+(B)+(C) 90 + 1200 + 140
Method: as §1, §2
(notes: the term “seeds” also includes vegetative propagation forms such as, for example, rhizome pieces; abbreviations used: h light=hours of illumination, g of AS/ha=gram of active substance per hectare, l/ha=liter per hectare, S=sensitive, R=resistant) • 1. Pre-emergence action against weeds: seeds of various broad-leaved weed and weed grass biotypes (origins) were sown in a 8-13 cm diameter pot filled with natural soil of a standard field soil (loamy silt; non-sterile) and covered with a covering soil layer of about 1 cm. The pots were then cultivated in a greenhouse (12-16 h of light, temperature day 20-22° C., night 15-18° C.) until the time of application. The pots were treated at the BBCH stage 00-10 of the seeds/plants on a laboratory track sprayer with spray liquors comprising the compositions according to the invention, mixtures or components used individually, as WG, WP, EC or other formulations. The application rate for the spray application was 100-600 l of water/ha. After the treatment, the plants were returned to the greenhouses and, when required, treated with fertilizer and watered. • 2. Post-emergence action against weeds: seeds of various broad-leaved weed and weed grass biotypes (origins) were sown in a 8-13 cm diameter pot filled with natural soil of a standard field soil (loamy silt; non-sterile) and covered with a covering soil layer of about 1 cm. The pots were then cultivated in a greenhouse (12-16 h of light, temperature day 20-22° C., night 15-18° C.) until the time of application. The pots were treated at various BBCH stages between 11-25 of the seeds/plants, i.e. generally between two to three weeks after the start of the cultivation, on a laboratory track sprayer with spray liquors comprising the compositions according to the invention, mixtures or components used individually, as WG, WP, EC or other formulations. The application rate for the spray application was 100-600 l of water/ha. After the treatment, the plants were returned to the greenhouses and, when required, treated with fertilizer and watered. • 3. […]

LOLPE (Lolium perenne) = assay: Pre-sowing application action against weeds (7 days prior to sowing), test method 5; conditions: application 7 days prior to sowing; g of AS/ha: (A) 90, (B) 1200, (C) 140, (A)+(B)+(C) 90 + 1200 + 140
Method: as §1, §2
(§4) (notes: the term “seeds” also includes vegetative propagation forms such as, for example, rhizome pieces; abbreviations used: h light=hours of illumination, g of AS/ha=gram of active substance per hectare, l/ha=liter per hectare, S=sensitive, R=resistant) • 1. Pre-emergence action against weeds: seeds of various broad-leaved weed and weed grass biotypes (origins) were sown in a 8-13 cm diameter pot filled with natural soil of a standard field soil (loamy silt; non-sterile) and covered with a covering soil layer of about 1 cm. The pots were then cultivated in a greenhouse (12-16 h of light, temperature day 20-22° C., night 15-18° C.) until the time of application. The pots were treated at the BBCH stage 00-10 of the seeds/plants on a laboratory track sprayer with spray liquors comprising the compositions according to the invention, mixtures or components used individually, as WG, WP, EC or other formulations. The application rate for the spray application was 100-600 l of water/ha. After the treatment, the plants were returned to the greenhouses and, when required, treated with fertilizer and watered. • 2. Post-emergence action against weeds: seeds of various broad-leaved weed and weed grass biotypes (origins) were sown in a 8-13 cm diameter pot filled with natural soil of a standard field soil (loamy silt; non-sterile) and covered with a covering soil layer of about 1 cm. The pots were then cultivated in a greenhouse (12-16 h of light, temperature day 20-22° C., night 15-18° C.) until the time of application. […]

AVEFA (Avena fatua) = assay: as above; conditions: application 7 days prior to sowing; g of AS/ha: (A) 90, (B) 1200, (C) 140, (A)+(B)+(C) 90 + 1200 + 140
Method: as §1, §2, §4

[5] = test system: HORVS (Hordeum vulgare, summer barley); assay: PE crop selectivity at different sowing depths, test method 9; conditions: PE application, g of AS/ha: (A) 90, (B) 1200, (C) 140, (A)+(B)+(C) 90 + 1200 + 140
Method: as §1
as §2, with “group. […]” for “group.”

[6] = test system: HORVS (Hordeum vulgare, summer barley); assay: Selective pre-emergence action (crop compatibility), greenhouse trial, test method 3; conditions: PE application; g of AS/ha: (A) 90, (B) 1200, (C) 140, (A)+(B)+(C) 90 + 1200 + 140
Method: as §1
as §2, with “group. […]” for “group.”

[7] = test system: HORVS (Hordeum vulgare, summer barley); assay: PE crop compatibility at different soil pH values, test method 10; conditions: PE application, g of AS/ha: (A) 90, (B) 1200, (C) 140, (A)+(B)+(C) 90 + 1200 + 140
Method: as §1, §2

[8] = test system: ALOMY resistant (Alopecurus myosuroides); assay: PE action on resistant weed biotypes, test method 8; conditions: PE application; g of AS/ha: (A) 90, (B) 1200, (C) 140, (A)+(B)+(C) 90 + 1200 + 140, iodosulfuron 10
Method: as §1, §2, §3

[9] = test system: ALOMY sensitive (Alopecurus myosuroides); assay: as above; conditions: PE application; g of AS/ha: (A) 90, (B) 1200, (C) 140, (A)+(B)+(C) 90 + 1200 + 140, iodosulfuron 10
Method: as §1, §2, §3

[10] = test system: LOLSS resistant (Lolium species); assay: as above; conditions: PE application; g of AS/ha: (A) 90, (B) 1200, (C) 140, (A)+(B)+(C) 90 + 1200 + 140, iodosulfuron 10
Method: as §1, §2, §3

[11] = test system: LOLSS sensitive (Lolium species); assay: as above; conditions: PE application; g of AS/ha: (A) 90, (B) 1200, (C) 140, (A)+(B)+(C) 90 + 1200 + 140, iodosulfuron 10
Method: as §1, §2, §3

CCC(CC)Nc1c([N+](=O)[O-])cc(C)c(C)c1[N+](=O)[O-] [(B) pendimethalin, N-(1-ethylpropyl)-3,4-dimethyl-2,6-dinitrobenzenamine]
activity MATCH [1]: 18%
activity HORVS (crop plant; visual, scale 0-100%) [2]: 10%
activity HORVS (crop plant) [3]: 30%
activity HORVS IU soil (crop plant) ([4]; IU soil): 0%
activity HORVS IU/EC73 soil (crop plant) ([4]; IU/EC73 soil): 0%
activity LOLPE (LOLPE (Lolium perenne)): 0%
activity AVEFA (AVEFA (Avena fatua)): 70%
activity HORVS 5 mm (crop plant) ([5]; sowing depth 5 mm): 30%
activity HORVS 20 mm (crop plant) ([5]; sowing depth 20 mm): 20%
activity HORVS (crop plant) [6]: 50%
activity HORVS pH 7.4 (crop plant) ([7]; soil pH 7.4): 0%
activity HORVS pH 8.4 (crop plant) ([7]; soil pH 8.4): 15%
activity ALOMY resistant [8]: 40%
activity ALOMY sensitive [9]: 30%
activity LOLSS resistant [10]: 0%
activity LOLSS sensitive [11]: 78%

— patent US20110152093A1, “Herbicidal compositions comprising flufenacet” (Bayer CropScience AG, priority 2009, published 2011)
